Measured values: patent US10954214B2 (Janssen Pharmaceutica NV, priority 2016, dated 2021)

How the values were obtained:
[1] = molecular target: full-length MALT1 protein (Strep-MALT1(1-824)-His) (Homo sapiens (Human), UniProt Q9UDY8); experiment: MALT1 Biochemical Protease Assay (Ac-LRSR-AMC substrate); settings: 10 nM FL MALT1, 200 μM Ac-LRSR-AMC, 4 h at RT; read-out: MALT1_Biochemical activity (Ac-LRSR-amc) IC50
Outline: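 Full-length MALT1 pre-incubated with compounds (30 μM to 0.5 nM, 11 threefold steps) for 50 min at RT. After Ac-LRSR-AMC was added, the reaction ran 4 h at RT and AMC fluorescence was read. IC50 and Hill slope from curve fitting against no-enzyme and no-compound controls.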

[2] = system: IL6 secretion by OCI-LY3 ABC-DLBCL cells; experiment: Human IL6 Mesoscale assay (OCI-LY3); assay type: cell-based; settings: Homo sapiens, 24 h
Outline: (§1)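 Compounds tested from 15 μM to 58.6 nM (twofold, 9 concentrations) on 100,000 cells per well over 24 h at 37° C, without beta-mercaptoethanol. Secreted cytokine in supernatant detected by MSD electrochemiluminescence; scaling used DMSO as maximum and RN486 as full inhibition.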

[3] = system: IL10 secretion by OCI-LY3 ABC-DLBCL cells; experiment: Human IL10 Mesoscale assay (OCI-LY3); assay type: cell-based; settings: Homo sapiens, 24 h
Outline: as §1

Sequence of full-length MALT1 protein (Strep-MALT1(1-824)-His) (Q9UDY8 whole entry): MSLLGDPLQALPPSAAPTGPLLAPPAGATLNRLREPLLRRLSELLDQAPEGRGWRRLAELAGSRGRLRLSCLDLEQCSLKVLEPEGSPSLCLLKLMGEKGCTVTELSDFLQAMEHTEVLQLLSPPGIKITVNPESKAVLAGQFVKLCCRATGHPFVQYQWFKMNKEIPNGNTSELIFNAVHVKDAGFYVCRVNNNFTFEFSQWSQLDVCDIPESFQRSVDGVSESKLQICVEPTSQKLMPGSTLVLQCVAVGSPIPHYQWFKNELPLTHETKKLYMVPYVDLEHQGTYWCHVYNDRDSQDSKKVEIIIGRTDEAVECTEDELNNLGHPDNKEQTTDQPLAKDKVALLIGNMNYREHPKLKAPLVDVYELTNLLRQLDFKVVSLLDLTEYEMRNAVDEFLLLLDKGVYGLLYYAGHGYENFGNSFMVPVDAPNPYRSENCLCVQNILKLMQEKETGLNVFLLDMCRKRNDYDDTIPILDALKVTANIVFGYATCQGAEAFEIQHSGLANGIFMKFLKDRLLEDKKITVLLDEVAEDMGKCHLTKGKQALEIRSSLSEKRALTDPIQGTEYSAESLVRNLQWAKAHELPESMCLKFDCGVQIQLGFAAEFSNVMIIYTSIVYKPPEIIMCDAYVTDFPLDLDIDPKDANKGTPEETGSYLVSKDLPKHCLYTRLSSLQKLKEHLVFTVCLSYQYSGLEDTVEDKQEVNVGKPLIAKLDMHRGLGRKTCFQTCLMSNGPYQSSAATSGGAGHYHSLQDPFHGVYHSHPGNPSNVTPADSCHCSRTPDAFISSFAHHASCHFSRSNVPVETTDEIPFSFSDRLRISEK

SMILES	IC50 [1]	IC50 [2]	IC50 [3]
N#Cc1cc(NC(=O)c2cnn(-c3cccc4nc(F)ccc34)c2C(F)(F)F)cnc1-n1nccn1 [Cpd 291, N-(5-cyano-6-(2H-1,2,3-triazol-2-yl)pyridin-3-yl)-1-(2-fluoroquinolin-5-yl)-5-(trifluoromethyl)-1H-pyrazole-4-carboxamide]	0.081 µM	0.11 µM	0.1 µM
C#Cc1cc(NC(=O)c2cnn(-c3cccc4c(=O)[nH]ccc34)c2C(F)(F)F)c(C)nc1-n1nccn1 [Cpd 190, N-(5-ethynyl-2-methyl-6-(2H-1,2,3-triazol-2-yl)pyridin-3-yl)-1-(1-oxo-1,2-dihydroisoquinolin-5-yl)-5-(trifluoromethyl)-1H-pyrazole-4-carboxamide]	0.17 µM	0.186 µM	0.093 µM
O=C(Nc1cnc(-c2nn[nH]n2)c(Cl)c1)c1cnn(-c2cccc3ncccc23)c1C(F)(F)F [Cpd 307, N-(5-chloro-6-(2H-tetrazol-5-yl)pyridin-3-yl)-1-(quinolin-5-yl)-5-(trifluoromethyl)-1H-pyrazole-4-carboxamide]	0.058 µM	0.447 µM	0.427 µM
COc1ncc(NC(=O)c2cnn(-c3cccc4c(=O)[nH]ccc34)c2C(F)(F)F)cc1Cl [Cpd 345, N-(5-chloro-6-methoxypyridin-3-yl)-1-(1-oxo-1,2-dihydroisoquinolin-5-yl)-5-(trifluoromethyl)-1H-pyrazole-4-carboxamide]	0.093 µM	0.079 µM	0.058 µM
Cc1ncc(NC(=O)c2cnn(-c3cnc(N)c4ccccc34)c2C(F)(F)F)cc1C(F)(F)F [Cpd 377, 1-(1-aminoisoquinolin-4-yl)-N-(6-methyl-5-(trifluoromethyl)pyridin-3-yl)-5-(trifluoromethyl)-1H-pyrazole-4-carboxamide]	0.457 µM	0.052 µM	0.056 µM
O=C(Nc1ccc(-c2n[nH]c(=O)[nH]2)c(Cl)c1)c1cnn(-c2cccc3ncccc23)c1C(F)(F)F [Cpd 166, N-(3-chloro-4-(5-oxo-4,5-dihydro-1H-1,2,4-triazol-3-yl)phenyl)-1-(quinolin-5-yl)-5-(trifluoromethyl)-1H-pyrazole-4-carboxamide]	0.229 µM	0.457 µM	0.479 µM
Cc1nc(-n2cccn2)c(Cl)cc1NC(=O)c1cnn(-c2cnc(N)c3ccccc23)c1C(F)(F)F [Cpd 336, 1-(1-aminoisoquinolin-4-yl)-N-(5-chloro-2-methyl-6-(1H-pyrazol-1-yl)pyridin-3-yl)-5-(trifluoromethyl)-1H-pyrazole-4-carboxamide]	0.214 µM	0.209 µM	0.117 µM
N#Cc1cc(NC(=O)c2cnn(-c3ccnc4cnccc34)c2C(F)(F)F)cnc1-n1nccn1 [Cpd 276, N-(5-cyano-6-(2H-1,2,3-triazol-2-yl)pyridin-3-yl)-1-(1,7-naphthyridin-4-yl)-5-(trifluoromethyl)-1H-pyrazole-4-carboxamide]	0.138 µM	0.186 µM	0.117 µM
Cc1nc2ccccn2c1-n1ncc(C(=O)Nc2cnc(-n3nccn3)c(C#N)c2)c1C(F)(F)F [Cpd 295, N-(5-cyano-6-(2H-1,2,3-triazol-2-yl)pyridin-3-yl)-1-(2-methylimidazo[1,2-a]pyridin-3-yl)-5-(trifluoromethyl)-1H-pyrazole-4-carboxamide]	0.074 µM	1.26 µM	0.724 µM
O=C(Nc1cncc(Cl)c1)c1cnn(-c2cccc3c(=O)[nH]ccc23)c1C(F)(F)F [Cpd 353, N-(5-chloropyridin-3-yl)-1-(1-oxo-1,2-dihydroisoquinolin-5-yl)-5-(trifluoromethyl)-1H-pyrazole-4-carboxamide]	0.115 µM	0.692 µM	0.537 µM
N#Cc1cc(NC(=O)c2cnn(-c3cnc(N)c4ccccc34)c2C(F)(F)F)ccn1 [Cpd 340, 1-(1-aminoisoquinolin-4-yl)-N-(2-cyanopyridin-4-yl)-5-(trifluoromethyl)-1H-pyrazole-4-carboxamide]	0.209 µM	0.295 µM	0.229 µM
N#Cc1cc(NC(=O)c2cnn(-c3ncnc4scnc34)c2C(F)(F)F)cnc1-n1nccn1 [Cpd 294, N-(5-cyano-6-(2H-1,2,3-triazol-2-yl)pyridin-3-yl)-1-(thiazolo[5,4-d]pyrimidin-7-yl)-5-(trifluoromethyl)-1H-pyrazole-4-carboxamide]	0.076 µM	1.58 µM	0.871 µM
NC(=O)c1cn(-c2ncc(NC(=O)c3cnn(-c4cccc5ncccc45)c3C(F)(F)F)cc2Cl)nn1 [Cpd 246, 1-(3-chloro-5-(1-(quinolin-5-yl)-5-(trifluoromethyl)-1H-pyrazole-4-carboxamido)pyridin-2-yl)-1H-1,2,3-triazole-4-carboxamide]	0.38 µM	0.135 µM	0.063 µM
O=C(Nc1cnc(-n2nncc2CO)c(Cl)c1)c1cnn(-c2cccc3c(=O)[nH]ccc23)c1C(F)(F)F [Cpd 168, N-(5-chloro-6-(5-(hydroxymethyl)-1H-1,2,3-triazol-1-yl)pyridin-3-yl)-1-(1-oxo-1,2-dihydroisoquinolin-5-yl)-5-(trifluoromethyl)-1H-pyrazole-4-carboxamide]	0.107 µM	0.123 µM	0.044 µM
N#Cc1cc(NC(=O)c2cnn(-c3cccc4c(=O)[nH]ccc34)c2C(F)(F)F)ccn1 [Cpd 356, N-(2-cyanopyridin-4-yl)-1-(1-oxo-1,2-dihydroisoquinolin-5-yl)-5-(trifluoromethyl)-1H-pyrazole-4-carboxamide]	0.123 µM	0.295 µM	0.209 µM
Cc1nc2cccc(-n3ncc(C(=O)Nc4cnc(-n5nccn5)c(C#N)c4)c3C(F)(F)F)c2o1 [Cpd 271, N-(5-cyano-6-(2H-1,2,3-triazol-2-yl)pyridin-3-yl)-1-(2-methylbenzo[d]oxazol-7-yl)-5-(trifluoromethyl)-1H-pyrazole-4-carboxamide]	0.145 µM	0.112 µM	0.095 µM

The remaining lines, values ahead:

IC50 [1]	IC50 [2]	IC50 [3]	SMILES
0.977 µM	1.12 µM	0.891 µM	O=C(Nc1cnc(-n2nccn2)c(Cl)c1)c1cnn(-c2cccc3nc([C@@H]4CCCO4)ccc23)c1C(F)(F)F (single isomer, unassigned) [Cpd 441, (*S)—N-(5-chloro-6-(2H-1,2,3-triazol-2-yl)pyridin-3-yl)-1-(2-(tetrahydrofuran-2-yl)quinolin-5-yl)-5-(trifluoromethyl)-1H-pyrazole-4-carboxamide]
0.174 µM	0.132 µM	0.06 µM	Cc1cc(-n2nccn2)c(Cl)cc1NC(=O)c1cnn(-c2cnc(N)c3ccccc23)c1C(F)(F)F [Cpd 335, 1-(1-aminoisoquinolin-4-yl)-N-(5-chloro-2-methyl-4-(2H-1,2,3-triazol-2-yl)phenyl)-5-(trifluoromethyl)-1H-pyrazole-4-carboxamide]
0.174 µM	0.437 µM	0.309 µM	COc1cc(-n2ncc(C(=O)Nc3cnc(-n4nccn4)c(Cl)c3)c2C(F)(F)F)c2ccccc2n1 [Cpd 417, N-(5-chloro-6-(2H-1,2,3-triazol-2-yl)pyridin-3-yl)-1-(2-methoxyquinolin-4-yl)-5-(trifluoromethyl)-1H-pyrazole-4-carboxamide]
0.331 µM	0.17 µM	0.079 µM	CCOC(C)c1ncc(-n2ncc(C(=O)Nc3cnc(-n4nccn4)c(Cl)c3)c2C(F)(F)F)c2ccccc12 (stereo not drawn) [Cpd 368, N-(5-chloro-6-(2H-1,2,3-triazol-2-yl)pyridin-3-yl)-1-(1-(1-ethoxyethyl)isoquinolin-4-yl)-5-(trifluoromethyl)-1H-pyrazole-4-carboxamide]
0.01 µM	0.447 µM	0.339 µM	COc1ccc2c(-n3ncc(C(=O)Nc4cnc(-n5nccn5)c(Cl)c4)c3C(F)(F)F)cccc2n1 [Cpd 420, N-(5-chloro-6-(2H-1,2,3-triazol-2-yl)pyridin-3-yl)-1-(2-methoxyquinolin-5-yl)-5-(trifluoromethyl)-1H-pyrazole-4-carboxamide]
1.23 µM	0.052 µM	0.052 µM	O=C(Nc1cnc(-n2nccn2)c(Cl)c1)c1cnn(-c2cccc3[nH]c(=O)ccc23)c1C(F)(F)F [Cpd 344, N-(5-chloro-6-(2H-1,2,3-triazol-2-yl)pyridin-3-yl)-1-(2-oxo-1,2-dihydroquinolin-5-yl)-5-(trifluoromethyl)-1H-pyrazole-4-carboxamide]
0.437 µM	0.065 µM	0.054 µM	O=C(Nc1cnc(-n2nccn2)c(Cl)c1)c1cnn(-c2ccc3nccn3n2)c1C(F)(F)F [Cpd 242, N-(5-chloro-6-(2H-1,2,3-triazol-2-yl)pyridin-3-yl)-1-(imidazo[1,2-b]pyridazin-6-yl)-5-(trifluoromethyl)-1H-pyrazole-4-carboxamide]
0.155 µM	0.034 µM	0.029 µM	O=C1CCC(c2ncc(-n3ncc(C(=O)Nc4cnc(-n5nccn5)c(Cl)c4)c3C(F)(F)F)c3ccccc23)N1 (stereo not drawn) [Cpd 369, N-(5-chloro-6-(2H-1,2,3-triazol-2-yl)pyridin-3-yl)-1-(1-(5-oxopyrrolidin-2-yl)isoquinolin-4-yl)-5-(trifluoromethyl)-1H-pyrazole-4-carboxamide]
0.095 µM	0.05 µM	0.036 µM	O=C(Nc1cnc(-n2nccn2)c(Cl)c1)c1cnn(-c2cnc(C(F)F)c3ccccc23)c1C(F)(F)F [Cpd 394, N-(5-chloro-6-(2H-1,2,3-triazol-2-yl)pyridin-3-yl)-1-(1-(difluoromethyl)isoquinolin-4-yl)-5-(trifluoromethyl)-1H-pyrazole-4-carboxamide]
